From patent publication US7304061B2, “Heterocyclic inhibitors of ERK2 and uses thereof” (Vertex Pharmaceuticals Incorporated, priority 2002, dated 2007)

Target: ERK2 (Homo sapiens, UniProt P28482)
Assay: ERK2 inhibition assay (spectrophotometric coupled-enzyme assay)
Type: biochemical
Conditions: activated ERK2 10 nM, 65 μM ATP, 200 μM erktide peptide, 30° C., pH 7.5
Description: Compounds were assayed for the inhibition of ERK2 by a spectrophotometric coupled-enzyme assay (Fox et al (1998) Protein Sci 7, 2249). In this assay, a fixed concentration of activated ERK2 (10 nM) was incubated with various concentrations of the compound in DMSO (2.5%) for 10 min. at 30° C. in 0.1 M HEPES buffer, pH 7.5, containing 10 mM MgCl2, 2.5 mM phosphoenolpyruvate, 200 μM NADH, 150 μg/mL pyruvate kinase, 50 μg/mL lactate dehydrogenase, and 200 μM erktide peptide. The reaction was initiated by the addition of 65 μM ATP. The rate of decrease of absorbance at 340 nm was monitored. The Ki and IC50 were evaluated from the rate data as a function of inhibitor concentration.

Chain of ERK2 (P28482 whole entry, species assumed): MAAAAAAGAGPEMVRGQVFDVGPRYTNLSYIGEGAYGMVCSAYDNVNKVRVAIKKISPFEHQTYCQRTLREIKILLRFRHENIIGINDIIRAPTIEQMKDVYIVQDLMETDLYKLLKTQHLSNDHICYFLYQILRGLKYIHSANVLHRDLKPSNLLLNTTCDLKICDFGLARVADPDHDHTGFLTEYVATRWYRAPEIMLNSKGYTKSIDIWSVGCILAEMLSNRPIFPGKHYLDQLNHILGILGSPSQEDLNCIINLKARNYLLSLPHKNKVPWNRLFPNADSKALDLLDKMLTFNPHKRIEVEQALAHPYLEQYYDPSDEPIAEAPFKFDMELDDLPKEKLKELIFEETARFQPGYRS

Ki [nM] | Structure (SMILES)
< 100 | CCOc1ncc(C)c(-c2c[nH]c(C(=O)N[C@H](CO)c3ccccc3)c2)n1 [Compound I-22, 4-(5-methyl-2-ethoxy-pyrimidin-4-yl)-1H-pyrrole-2 carboxylic acid (2-hydroxy-1-(S)-phenyl-ethyl)-amide]
< 100 | Cc1cnc(-c2ccccc2)nc1-c1c[nH]c(C(=O)N[C@H](CO)c2ccccc2)c1 [Compound I-24, 4-(5-Methyl-2-phenyl-pyrimidin-4-yl)-1H-pyrrole-2 carboxylic acid (2-hydroxy-1-(S)-phenyl-ethyl)-amide]
